Results as given in patent US12624004B2 (Fudan University, priority 2019, dated 2026).
Structures can show the parent of a compound that is named as a salt. Where two headings read alike, the source gives them in different places.

How the values were obtained:
Female mice = test: In vivo hot plate method analgesia test; settings: intraperitoneal; for % MPE @ 10 mg/kg: Table 3-2, hot plate 55° C.; for % MPE (5 mg/kg): Table 2-2, hot plate 55° C.; for ED50: Mus musculus, ip; for Maximum percentage effective analgesia (% MPE): Table 5-2, hot plate 55° C.; for % MPE @ 10 mg/kg / Maximum percentage effective analgesia (% MPE): 10 mg/kg dose
How it was run: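 Female mice (~20 g) on a 55° C hot plate, hindpaw response latency as pain threshold (pre-screen 5–30 s, 60 s cut-off). Latencies at 15, 30, 60 and 120 min after intraperitoneal dosing. %MPE = (post−pre latency)/(60−pre)×100, ED50 derived from %MPE.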

δ opioid receptor = biological target: T1, δ opioid receptor (Homo sapiens, UniProt P41143); test: Competition binding assay on membranes of CHO cells expressing δ opioid receptor, [3H]-labeled ligand; settings: for inhibition at 1 µM: 0.5 h
T1 construct: expressed in transfected cells; host or cells: CHO cells (membranes)
How it was run: (§1)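 CHO membranes (20–30 μg protein) incubated with [3H]-labeled ligand at 1–2 nM and test compounds, 30 min at 30° C; nonspecific binding with 1 μM corresponding ligand. Filtered on GF/C, washed with 50 mM Tris-HCl pH 7.4, scintillation-counted. IC50 converted to Ki by Ki=IC50/(1+[L]/Kd).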

κ opioid receptor = biological target: T2, κ opioid receptor (Homo sapiens, UniProt P41145); test: Competition binding assay on membranes of CHO cells expressing κ opioid receptor, [3H]-labeled ligand; settings: for inhibition at 1 µM: 0.5 h
T2 construct: expressed in transfected cells; host or cells: CHO cells (membranes)
How it was run: as §1

μ opioid receptor = biological target: T3, μ opioid receptor (Homo sapiens, UniProt P35372); test: Competition binding assay on membranes of CHO cells expressing μ opioid receptor, [3H]-labeled ligand; settings: for Ki: read-out: μOR Ki
T3 construct: expressed in transfected cells; host or cells: CHO cells (membranes)
How it was run: as §1

[1] = Table 3-1, 1 μM concentration of compounds, read-out: δOR Binding rate (%)
[2] = Table 3-1, 1 μM concentration of compounds, read-out: κOR Binding rate (%)
[3] = Table 3-1, 1 μM concentration of compounds, read-out: μOR Binding rate (%)
[4] = Table 2-1, 1 μM concentration of compound, read-out: δOR Binding rate (%)
[5] = Table 2-1, 1 μM concentration of compound, read-out: κOR Binding rate (%)
[6] = Table 5-1, 1 μM concentration of compound, read-out: δOR Combination rate (%)
[7] = Table 5-1, 1 μM concentration of compound, read-out: κOR Combination rate (%)
[8] = 0.5 h, Table 5-1, 1 μM concentration of compound, read-out: μOR Combination rate (%)

COc1cccc(C2(O)CCN(C(=O)Nc3ccc(F)c(Cl)c3)CC2CN(C)C)c1 (stereo not drawn) [FWBF9, N-(3-chloro-4-fluorophenyl)-3-((dimethylamino)methyl)-4-hydroxy-4-(3-methoxyphenyl) piperidine-1-carboxamide hydrochloride]
% MPE @ 10 mg/kg (Female mice): 18.15% | inhibition at 1 µM (δ opioid receptor; [1]): 21.6 ± 13.4% | inhibition at 1 µM (κ opioid receptor; [2]): 7.1 ± 5% | inhibition at 1 µM (μ opioid receptor; [3]): 25 ± 13.3%

COc1cccc(C2(O)CCN(S(=O)(=O)C[C@]34CC[C@H](CC3=O)C4(C)C)CC2CN(C)C)c1 (stereo partly drawn) [FWBH25, (1S,4R)-1-(((3-((Dimethylamino)methyl)-4-hydroxy-4-(3-methoxyphenyl)piperidin-1-yl)sulfonyl)methyl)-7,7-dimethylbicyclo[2.2.1]heptan-2-one hydrochloride]
% MPE (5 mg/kg) (Female mice): 6.03% | inhibition at 1 µM (δ opioid receptor; [4]): 14.3 ± 8.63% | Ki (κ opioid receptor; Table 2-1, read-out: κOR Ki): 54 ± 20.9 nM | Ki (μ opioid receptor; Table 2-1): 50.8 ± 1.56 nM

COc1cccc(C2(O)CCN(S(=O)(=O)Cc3cccc(Br)c3)CC2CN(C)C)c1.Cl (stereo not drawn) [FWBH13, 1-((3-Bromobenzyl)sulfonyl)-3-((dimethylamino)methyl)-4-(3-methoxyphenyl)piperidin-4-ol hydrochloride]
% MPE (5 mg/kg) (Female mice): 81.71% | inhibition at 1 µM (δ opioid receptor; [4]): 15.1 ± 2.47% | inhibition at 1 µM (κ opioid receptor; [5]): 42.1 ± 2.29% | Ki (μ opioid receptor; Table 2-1): 18.2 ± 4.37 nM

COc1cccc(C2(O)CCN(C(=O)Cc3cc(F)c(F)cc3F)CC2CN(C)C)c1.Cl (stereo not drawn) [FWBE18, 1-(3-((Dimethylamino)methyl)-4-hydroxy-4-(3-methoxyphenyl)piperidin-1-yl)-2-(2,4,5-trifluorophenyl)ethyl-1-one hydrochloride]
ED50 (Female mice; Table 5-2, hot plate): 1.11 mg/kg | inhibition at 1 µM (δ opioid receptor; [6]): 0% | inhibition at 1 µM (κ opioid receptor; [7]): 61.6 ± 0.7% | inhibition at 1 µM (μ opioid receptor; [8]): 29.7 ± 1.9%

COc1cccc(C2(O)CCN(C(=O)Nc3cc(C(F)(F)F)cc(C(F)(F)F)c3)CC2CN(C)C)c1.Cl (stereo not drawn) [FWBF10, N-(3,5-Bis(trifluoromethyl)phenyl)-3-((dimethylamino)methyl)-4-hydroxy-4-(3-methoxyphenyl) piperidine-1-carboxamide hydrochloride]
% MPE @ 10 mg/kg (Female mice): 7.74% | inhibition at 1 µM (δ opioid receptor; [1]): 0.9% | inhibition at 1 µM (κ opioid receptor; [2]): 8.6 ± 4.8% | inhibition at 1 µM (μ opioid receptor; [3]): 0%

COc1cccc(C2(O)CCN(S(=O)(=O)Cc3ccccc3)CC2CN(C)C)c1.Cl (stereo not drawn) [FWBH6, 1-(Benzylsulfonyl)-3-((dimethylamino)methyl)-4-(3-methoxyphenyl)piperidin-4-ol hydrochloride]
ED50 (Female mice; Table 2-2, hot plate): 1.1 mg/kg | Ki (δ opioid receptor): > 10000 nM | Ki (κ opioid receptor): > 10000 nM | inhibition at 1 µM (μ opioid receptor; Table 2-1, 1 μM concentration of compound, read-out: μOR Binding rate (%)): 0%

COc1cccc(C2(O)CCN(S(=O)(=O)C(C)C)CC2CN(C)C)c1.Cl (stereo not drawn) [FWBH20, 3-((Dimethylamino)methyl)-1-(isopropylsulfonyl)-4-(3-methoxyphenyl)piperidin-4-ol hydrochloride]
% MPE (5 mg/kg) (Female mice): 0% | inhibition at 1 µM (δ opioid receptor; [4]): 20.8 ± 1.91% | inhibition at 1 µM (κ opioid receptor; [5]): 6.88 ± 4.38% | Ki (μ opioid receptor; Table 2-1): 255 ± 5.3 nM

COc1cccc(C2(O)CCN(C(=O)Nc3cc(Cl)c(Cl)c(Cl)c3)CC2CN(C)C)c1 (stereo not drawn) [FWBF6, 3-((Dimethylamino)methyl)-4-hydroxy-4-(3-methoxyphenyl)-N-(3,4,5-trichlorophenyl) piperidine-1-carboxamide hydrochloride]
% MPE @ 10 mg/kg (Female mice): 4.54% | inhibition at 1 µM (δ opioid receptor; [1]): 0% | inhibition at 1 µM (κ opioid receptor; [2]): 0% | inhibition at 1 µM (μ opioid receptor; [3]): 13.2 ± 8%

COc1cccc(C2(O)CCN(C(=O)N(C)c3cccc(Cl)c3)CC2CN(C)C)c1.Cl (stereo not drawn) [FWBF3, N-(3-Chlorophenyl)-3-((dimethylamino)methyl)-4-hydroxy-4-(3-methoxyphenyl)-N-methylpiperidine-1-carboxamide hydrochloride]
% MPE @ 10 mg/kg (Female mice): 3.36% | inhibition at 1 µM (δ opioid receptor; [1]): 0% | inhibition at 1 µM (κ opioid receptor; [2]): 14 ± 9.7% | inhibition at 1 µM (μ opioid receptor; [3]): 8.7 ± 3.7%

COc1cccc(C2(O)CCN(C(=O)C3(c4ccccc4)CC3)CC2CN(C)C)c1.Cl (stereo not drawn) [FWBE24, (3-((Dimethylamino)methyl)-4-hydroxy-4-(3-methoxyphenyl)piperidin-1-yl)(1-phenylcyclopropyl)methanone hydrochloride]
Maximum percentage effective analgesia (% MPE) (Female mice): 29.85% | Ki (δ opioid receptor; Table 5-1, read-out: δOR Ki): 848 ± 529 nM | Ki (κ opioid receptor; Table 5-1, read-out: κOR Ki): 33.9 ± 0.92 nM | Ki (μ opioid receptor; Table 5-1): 67.15 ± 0.08 nM

COc1cccc(C2(O)CCN(C(=O)Cc3cccc([N+](=O)[O-])c3)CC2CN(C)C)c1.Cl (stereo not drawn) [FWBE22, 1-(3-((Dimethylamino)methyl)-4-hydroxy-4-(3-methoxyphenyl)piperidin-1-yl)-2-(3-nitrophenyl) ethyl-1-one hydrochloride]
Maximum percentage effective analgesia (% MPE) (Female mice): 72.88% | Ki (δ opioid receptor; Table 5-1, read-out: δOR Ki): > 10000 nM | Ki (κ opioid receptor; Table 5-1, read-out: κOR Ki): 1990 ± 146 nM | Ki (μ opioid receptor; Table 5-1): 85.6 ± 15.4 nM

COc1cccc(C2(O)CCN(C(=O)Nc3ccc(F)c(F)c3)CC2CN(C)C)c1.Cl (stereo not drawn) [FWBF8, N-(3,4-difluorophenyl)-3-((dimethylamino)methyl)-4-hydroxy-4-(3-methoxyphenyl)piperidine-1-carboxamide hydrochloride]
% MPE @ 10 mg/kg (Female mice): 21.76% | inhibition at 1 µM (δ opioid receptor; [1]): 16.4 ± 10.6% | inhibition at 1 µM (κ opioid receptor; [2]): 0% | inhibition at 1 µM (μ opioid receptor; [3]): 13.6 ± 13.1%

COc1cccc(C2(O)CCN(C(=O)Cc3cccc4ccccc34)CC2CN(C)C)c1.Cl (stereo not drawn) [FWBE16, 1-(3-((Dimethylamino)methyl)-4-hydroxy-4-(3-methoxyphenyl)piperidin-1-yl)-2-(naphthalen-1-yl)ethyl-1-one hydrochloride]
Maximum percentage effective analgesia (% MPE) (Female mice): 78.72% | Ki (δ opioid receptor; Table 5-1, read-out: δOR Ki): 2160 ± 72 nM | Ki (κ opioid receptor; Table 5-1, read-out: κOR Ki): 1700 ± 379 nM | Ki (μ opioid receptor; Table 5-1): 353 ± 4.5 nM

COc1cccc(C2(O)CCN(C(=O)C3(c4ccccc4)CCC3)CC2CN(C)C)c1.Cl (stereo not drawn) [FWBE25, (3-((Dimethylamino)methyl)-4-hydroxy-4-(3-methoxyphenyl)piperidin-1-yl)(1-phenylcyclobutyl) methanone hydrochloride]
Maximum percentage effective analgesia (% MPE) (Female mice): 5.03% | Ki (δ opioid receptor; Table 5-1, read-out: δOR Ki): 717 ± 253 nM | Ki (κ opioid receptor; Table 5-1, read-out: κOR Ki): 205 ± 40.9 nM | Ki (μ opioid receptor; Table 5-1): 80.9 ± 5.67 nM

COc1cccc(C2(O)CCN(C(=O)Cc3ccc(Cl)c(Cl)c3)CC2CN(C)C)c1.Cl (stereo not drawn) [FWBE17, 2-(3,4-Dichlorophenyl)-1-(3-((dimethylamino)methyl)-4-hydroxy-4-(3-methoxyphenyl)piperidin-1-yl)ethyl-1-one hydrochloride]
Maximum percentage effective analgesia (% MPE) (Female mice): 70.66% | Ki (δ opioid receptor; Table 5-1, read-out: δOR Ki): 805 ± 173 nM | Ki (κ opioid receptor; Table 5-1, read-out: κOR Ki): 288 ± 12.8 nM | Ki (μ opioid receptor; Table 5-1): 69.2 ± 0.4 nM

COc1cccc(C2(O)CCN(S(=O)(=O)C[C@@]34CC[C@@H](CC3=O)C4(C)C)CC2CN(C)C)c1 (stereo partly drawn) [FWBH24, (1R,4S)-1-(((3-((Dimethylamino)methyl)-4-hydroxy-4-(3-methoxyphenyl)piperidin-1-yl)sulfonyl)methyl)-7,7-Dimethylbicyclo[2.2.1]heptan-2-one hydrochloride]
% MPE (5 mg/kg) (Female mice): 54.81% | inhibition at 1 µM (δ opioid receptor; [4]): 11.1 ± 1.3% | Ki (κ opioid receptor; Table 2-1, read-out: κOR Ki): 433 ± 15.3 nM | Ki (μ opioid receptor; Table 2-1): 65.1 ± 5.36 nM

COc1cccc(C2(O)CCN(C(=O)Cc3ccc(Cl)cc3)CC2CN(C)C)c1.Cl (stereo not drawn) [FWBE19, 2-(4-Chlorophenyl)-1-(3-((dimethylamino)methyl)-4-hydroxy-4-(3-methoxyphenyl)piperidin-1-yl)ethyl-1-one hydrochloride]
Maximum percentage effective analgesia (% MPE) (Female mice): 73.98% | inhibition at 1 µM (δ opioid receptor; [6]): 0% | inhibition at 1 µM (κ opioid receptor; [7]): 39.4 ± 4.5% | inhibition at 1 µM (μ opioid receptor; [8]): 25.2 ± 5.2%

COc1cccc(C2(O)CCN(C(=O)Cc3cccc(Cl)c3)CC2CN(C)C)c1.Cl (stereo not drawn) [FWBE9, 2-(3-Chlorophenyl)-1-(3-((dimethylamino)methyl)-4-hydroxy-4-(3-methoxyphenyl)piperidin-1-yl)ethyl-1-one hydrochloride]
Maximum percentage effective analgesia (% MPE) (Female mice): 86.38% | Ki (δ opioid receptor; Table 5-1, read-out: δOR Ki): 1640 ± 148 nM | Ki (κ opioid receptor; Table 5-1, read-out: κOR Ki): 1010 ± 60.1 nM | Ki (μ opioid receptor; Table 5-1): 24.2 nM

COc1cccc(C2(O)CCN(C(=O)C3(c4ccccc4)CCCC3)CC2CN(C)C)c1.Cl (stereo not drawn) [FWBE26, (3-((Dimethylamino)methyl)-4-hydroxy-4-(3-methoxyphenyl)piperidin-1-yl)(1-phenylcyclopentyl) methanone hydrochloride]
Maximum percentage effective analgesia (% MPE) (Female mice): 52.96% | Ki (δ opioid receptor; Table 5-1, read-out: δOR Ki): 1640 ± 1160 nM | Ki (κ opioid receptor; Table 5-1, read-out: κOR Ki): 32.6 ± 4.35 nM | Ki (μ opioid receptor; Table 5-1): 73.72 ± 0.32 nM

COc1cccc(C2(O)CCN(C(=O)C(C)(C)c3ccccc3)CC2CN(C)C)c1.Cl (stereo not drawn) [FWBE23, 1-(3-((Dimethylamino)methyl)-4-hydroxy-4-(3-methoxyphenyl)piperidin-1-yl)-2-methyl-2-phenylpropan-1-one hydrochloride]
Maximum percentage effective analgesia (% MPE) (Female mice): 33.72% | Ki (δ opioid receptor; Table 5-1, read-out: δOR Ki): 688 ± 540 nM | Ki (κ opioid receptor; Table 5-1, read-out: κOR Ki): 44.4 ± 0.96 nM | Ki (μ opioid receptor; Table 5-1): 52.6 ± 3.83 nM

CCCCS(=O)(=O)N1CCC(O)(c2cccc(OC)c2)C(CN(C)C)C1.Cl (stereo not drawn) [FWBH15, 1-(Butylsulfonyl)-3-((dimethylamino)methyl)-4-(3-methoxyphenyl)piperidin-4-ol hydrochloride]
% MPE (5 mg/kg) (Female mice): 93.73% | inhibition at 1 µM (δ opioid receptor; [4]): 27.2 ± 1.43% | inhibition at 1 µM (κ opioid receptor; [5]): 9.86 ± 2.67% | Ki (μ opioid receptor; Table 2-1): 34.9 ± 9.4 nM
